Results reported in article PMC7197350, “Targeted chemotherapy overcomes drug resistance in melanoma” (Genes & Development, 2020).

Experiments:
Experiment in all cases: cells
Design in all cases: growth inhibition of A375 parental and resistant melanoma cells, dose-response curves
Settings in all cases: Homo sapiens, A-375, 96 h; read-out: Phendione IC50
[1] = tested on: A375 BRAFi resistant
Protocol: (§1) Figure 2. Phendione is a small molecule inhibitor targeting PP2A. (A) Immunoblots of A375 cell lysates collected after 3 h of drug treatment as indicated; i.e., increasing concentrations of LB100 compared with 0.2 µM phendione (left) and increasing concentrations of phendione compared with 3 µM pyrene (right). DMSO was used as negative control (vehicle). (B) Growth inhibition curves of A375 cells and IC50 values after treatment with phendione or LB100 for 96 h. Data are presented as mean ± SD of three independent experiments. (C) Phosphatase activity assay for PP2A core enzyme (complex of regulatory subunit Aα and catalytic subunit Cα; top), PP1 catalytic subunit Cα (middle) and PP1 catalytic subunit Cβ (bottom) incubated with phendione or pyrene at indicated concentrations. […] IC50s (micromolar) were calculated and is shown as an inset in each graph. […] (G) Quantification of cell apoptosis measured by Annexin V staining flow cytometry. Parental A375 and A375 BRAFi-resistant cells were treated with vehicle or increasing concentration of phendione as indicated in the panels for 24 h before apoptotic cells were measured by flow cytometry. […] Representative images are shown at the left and quantification results are shown at the right. […] (I,J) Quantification of reactive oxygen species (ROS) production measured by flow cytometry in A375 (I) and A375 BRAFi-resistant (J) cells. […]

[2] = tested on: A375
Protocol: as §1

[3] = tested on: A375 BRAFi + MEKi resistant

## O=C1C(=O)c2cccnc2-c2ncccc21 [phendione, 1,10-phenanthroline-5,6-dione]
[1]
  IC50: 113 nM
[2]
  IC50: 94 nM
[3]
  IC50: 119 nM
